Assay results as given in PMC9144829, “Histone Deacetylase Inhibitory Activity and Antiproliferative Potential of New [6]-Shogaol Derivatives” (Molecules, 2022).
Read-outs that look alike come from different tables or passages of the source.

Columns and labels:
[1] = tested on: HDAC enzymes (HeLa nuclear extract, mixed-HDAC isoforms); test: Fluor-de-Lys HDAC activity assay kit, HeLa nuclear extract as source of HDAC enzymes; assay type: biochemical, human; details: compounds at 100 µM
Procedure: The in vitro HDAC inhibitions of the obtained compounds were carried out with the assay kit containing mixed-HDAC isoforms. […] Therefore, the results were not fully related. However, compounds with good binding affinities should have the potential to be specific HDAC inhibitors for each isoform.
The semi-synthetic derivatives were evaluated for their ability to inhibit HDAC enzymes. Inhibition of HDAC activity in vitro was assessed using the Fluor-de-Lys HDAC activity assay kit (Biomol, Enzo Life Sciences International, Inc., Farmingdale, NY, USA). The HeLa nuclear extract provided with the kit was used as a source of HDAC enzymes for the in vitro study. TSA was used as the positive control. The HeLa nuclear extract, substrate, buffer and inhibitors were incubated. Deacetylation of the substrate was performed next by adding a developer to generate a fluorophore. The spectra Max Gemini XPS microplate spectrofluorometer (Molecular Devices, San Jose, CA, USA) was used to measure fluorescence signal with excitation at 360 nm and emission at 460 nm. A decrease in fluorescence signal indicated an inhibition of HDAC activity. Trichostatin A (TSA) was used as a positive control. All experiments were carried out in triplicate.

Vero cells = test: MTT assay, non-cancer Vero cells; assay type: cell-based; details: Chlorocebus sabaeus, read-out: IC50 Values (Mean ± SD; n = 3)
Procedure: (§1) The MTT reduction assay was performed with non-cancer (Vero), human cervical cancer (HeLa), human colon cancer (HCT116), human breast adenocarcinoma cancer (MCF-7), and cholangiocarcinoma (H-69 […], KKU-100 and KKU-M213B) cell lines according to the previously described method. Briefly, cells were seeded in 96-well plates. The next day, cells were exposed to the selected compounds at various concentrations and incubated for 24, 48 and 72 h. After incubation, the culture medium was exchanged with 110 µL of MTT (0.5 mg/mL in PBS medium) and further incubated for 2 h. The amount of MTT formazan product was determined after dissolving in DMSO by measuring its absorbance with a microplate reader (Bio-Rad Laboratories, Hercules, CA, USA) at a test wavelength of 550 nm and a reference wavelength of 655 nm. The cell viability was expressed as a percentage of the viable cells of control culture conditions, and the IC50 values of each group were calculated.

[2] = tested on: human cervical cancer (HeLa) cells; test: MTT assay, HeLa cells; assay type: cell-based; details: for selectivity towards HeLa cells than non-cancer cells: HeLa versus non-cancer cells; for IC50: Homo sapiens, read-out: IC50 Values (Mean ± SD; n = 3), HeLa cells
Procedure: as §1

[3] = tested on: human colon cancer (HCT116) cells; test: MTT assay, HCT116 cells; assay type: cell-based; details: Homo sapiens, HCT-116, read-out: IC50 Values (Mean ± SD; n = 3)
Procedure: as §1

[4] = tested on: human breast adenocarcinoma cancer (MCF-7) cells; test: MTT assay, MCF-7 cells; assay type: cell-based; details: Homo sapiens, MCF7, read-out: IC50 Values (Mean ± SD; n = 3)
Procedure: as §1

H-69 cells = test: MTT assay, H-69 cells; assay type: cell-based; details: Homo sapiens, NCI-H69, read-out: IC50 Values (Mean ± SD; n = 3)
Procedure: as §1

[5] = tested on: cholangiocarcinoma KKU-100 cells; test: MTT assay, KKU-100 cells; assay type: cell-based, human; details: Homo sapiens, KKU100, read-out: IC50 Values (Mean ± SD; n = 3)
Procedure: as §1

[6] = tested on: cholangiocarcinoma KKU-M213B cells; test: MTT assay, KKU-M213B cells; assay type: cell-based, human; details: Homo sapiens, read-out: IC50 Values (Mean ± SD; n = 3)
Procedure: as §1

histone deacetylase = details: Figure 1; read-out: IC50 (known histone deacetylase inhibitors); cited from earlier work

%HDAC Inhibition [1] [%]	IC50 ([2]; 24 h) [µM]	IC50 ([2]; 48 h) [µM]	IC50 ([2]; 72 h) [µM]	IC50 ([3]; 24 h) [µM]	IC50 ([3]; 48 h) [µM]	IC50 ([3]; 72 h) [µM]	IC50 ([4]; 24 h) [µM]	IC50 ([4]; 48 h) [µM]	IC50 ([4]; 72 h) [µM]	Compound	IC50 (Vero cells; 24 h) [µM]	IC50 (Vero cells; 48 h) [µM]	IC50 (Vero cells; 72 h) [µM]	selectivity towards HeLa cells than non-cancer cells [2]	IC50 (H-69 cells; 24 h) [µM]	IC50 (H-69 cells; 48 h) [µM]	IC50 (H-69 cells; 72 h) [µM]	IC50 ([5]; 24 h) [µM]	IC50 ([5]; 48 h) [µM]	IC50 (histone deacetylase) [µM]	also measured
86	16.9 ± 0.8	9.26 ± 0.46	8.1 ± 0.29	17.3 ± 0.57	12.4 ± 0.15	12.3 ± 0.13	24.8 ± 0.66	16.54 ± 0.15	13.39 ± 0.07	CCCCC/C=C/C(=O)CCc1ccc(O)c(OC)c1 [Compound 4, [6]-shogaol]	37.6 ± 0.94	36 ± 0.95	23.3 ± 0.24	3 fold	38.4 ± 0.84	32 ± 0.55	24.78 ± 0.24	27.64 ± 0.26	18.9 ± 0.48	50	IC50 ([5]; 72 h): 17.04 ± 0.04 µM; IC50 ([6]; 24 h): 17.95 ± 0.05 µM; IC50 ([6]; 48 h): 12.9 ± 0.47 µM; IC50 ([6]; 72 h): 9.91 ± 0.17 µM
83	83.8 ± 1.83	56.8 ± 1.24	23.1 ± 0.76	94.4 ± 2.7	39.2 ± 1.06	34.5 ± 0.66	56.6 ± 3.21	50.5 ± 1.64	31.8 ± 0.88	CCCCCC1CC(CCc2ccc(O)c(OC)c2)=NN1c1ccc(C(=O)O)cc1 (stereo not shown) [Compound 5k, 4-(3-(4-hydroxy-3-methoxyphenethyl)-5-pentyl-4,5-dihydro-1H-pyrazol-1-yl)benzo ic acid]	143 ± 2.15	128 ± 1.73	116.7 ± 1.13	about 5 fold	68.7 ± 1.15	52.7 ± 1.73	47.6 ± 0.73	68.1 ± 1.98	38.9 ± 0.65	–	IC50 ([5]; 72 h): 26.99 ± 0.08 µM; IC50 ([6]; 24 h): 63.2 ± 2.52 µM; IC50 ([6]; 48 h): 35.7 ± 1.4 µM; IC50 ([6]; 72 h): 29.1 ± 1.17 µM
–	–	–	–	–	–	–	–	–	–	COc1cc(CNC(=O)CCCCC(O)CC(C)C)ccc1O (stereo not shown) [Hydroxycapsaicin (2), hydroxycapsaicin]	–	–	–	–	–	–	–	–	–	72	–
–	–	–	–	–	–	–	–	–	–	CCCCC[C@H](O)CC(=O)CCc1ccc(O)c(OC)c1 [[6]-Gingerol (3), [6]-gingerol]	–	–	–	–	–	–	–	–	–	61	–
